Results from PubChem BioAssay (NCI).
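Cultured in 96-well plates, cells were exposed to test compound for 48 hours across five concentrations. The concentration for 50% growth inhibition is given as GI50. TGI is the concentration that stops growth completely.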

Columns and labels:
Experiment in all cases: DTP human tumour cell line panel, 48 h
A549 NSCLC = tested on: A549 NSCLC
HL-60(TB) leukemia = tested on: HL-60(TB) leukemia
OVCAR-4 ovarian = tested on: OVCAR-4 ovarian
SNB-75 CNS = tested on: SNB-75 CNS
SF-295 CNS = tested on: SF-295 CNS
CCRF-CEM leukemia = tested on: CCRF-CEM leukemia
T-47D breast = tested on: T-47D breast
SK-MEL-2 melanoma = tested on: SK-MEL-2 melanoma
TK-10 renal = tested on: TK-10 renal
M14 melanoma = tested on: M14 melanoma

SMILES | TGI (A549 NSCLC) [µM] | TGI (HL-60(TB) leukemia) [µM] | TGI (OVCAR-4 ovarian) [µM] | TGI (SNB-75 CNS) [µM] | TGI (SF-295 CNS) [µM] | TGI (CCRF-CEM leukemia) [µM] | TGI (T-47D breast) [µM] | TGI (SK-MEL-2 melanoma) [µM] | TGI (TK-10 renal) [µM] | TGI (M14 melanoma) [µM] | GI50 (OVCAR-4 ovarian) [µM] | GI50 (SF-295 CNS) [µM] | GI50 (A549 NSCLC) [µM] | GI50 (CCRF-CEM leukemia) [µM]
Cn1cc(S(=O)(=O)NC(=O)Nc2ccc(Cl)cc2)c(=O)c2ccc(F)cc21 | > 100 | > 100 | > 100 | > 100 | > 100 | > 100 | > 100 | > 100 | > 100 | – | – | – | – | –
C/C(N=NS(=O)(=O)c1ccc([N+](=O)[O-])cc1)=C1\C=CC=CN1O | > 100 | > 100 | > 100 | > 100 | > 100 | > 100 | – | – | > 100 | > 100 | – | – | – | –
[N-]=[N+]=CC(=O)OCCCCl | – | > 100 | > 100 | – | > 100 | > 100 | – | > 100 | > 100 | – | – | – | – | –
C[C@@H]1CC(=O)C[C@@H]2CC[C@H]3[C@@H]4CC[C@H](OC(=O)c5cccc6cc7ccccc7nc56)[C@H]4CC[C@@H]3[C@H]21 | 83.2 | – | 30.9 | 36.5 | 77.6 | – | 37.5 | 38 | 65.9 | 31.6 | – | – | – | –
Cc1cc2nc3c(C#N)c4c(c(-c5ccc(Cl)cc5)n3c2cc1C)CCC4 | > 100 | 48.3 | 97.1 | – | 39.8 | 70.7 | 52.1 | 36 | 60.5 | 32.7 | – | – | – | –
CCCCOC(=O)C1CC[C@H]2[C@@H]3CCc4cc(OC(=O)c5cccc6c(=O)c7ccccc7[nH]c56)ccc4[C@H]3CC[C@]12C (stereo partly specified) | 17.6 | 13.6 | 14.5 | 18.3 | 16.1 | – | 14.1 | 18.5 | 14.7 | 20.5 | – | – | – | –
C=C=CC(NC(=O)c1ccccc1)(C(=O)O)C(F)(F)F (stereo unspecified) | > 100 | > 100 | – | > 100 | > 100 | > 100 | – | > 100 | > 100 | > 100 | – | – | – | –
CC1OC2OC3C(OCC(O)C3O)OC(=O)[C@]34CCC(C)(C)CC3C3=CCC5[C@@]6(C)C[C@H](O)[C@H](OC7OC(CO)C(O)C(O)C7OC7OCC(OC(=O)CC(C)(O)CC(=O)OC1C(O)C2O)C(O)C7O)[C@@](C)(CO)C6CC[C@@]5(C)[C@]3(C)CC4 (stereo partly specified) | 10.7 | 4.11 | – | 18.4 | 12.4 | 24 | 17.6 | 18.8 | 19.2 | 8.87 | – | – | – | –
O=C(O)/C=C/c1c[nH]c(=O)[nH]c1=O | > 500 | > 500 | > 500 | > 500 | > 232 | > 316 | – | > 500 | – | – | > 500 | > 158 | – | –
CC12CCC(CC1)C(C)(C)O2 | 79.7 | > 93.9 | 129 | 115 | 116 | 201 | – | 118 | – | – | – | – | 6.75 | 35.8
Cc1cccc(N2C(=O)C3c4[nH]c5ccc(C)cc5c4C4CCC(C(C)(C)C)CC4C3C2=O)c1 (stereo unspecified) | 60.7 | 40.3 | > 100 | – | 47.5 | 68 | 52.1 | > 100 | 59.8 | > 100 | – | – | – | –
CNc1ncnc2c1nc(NC1CCCC1)n2C1OC(CO)C(O)C1O (stereo unspecified) | > 100 | – | > 100 | – | > 100 | – | > 100 | > 100 | > 100 | > 100 | – | – | – | –
COc1ccc(C2C(=O)c3c(OC)cc(OC)cc3OC2c2cccnc2)cc1 (stereo unspecified) | > 100 | – | > 100 | 84.1 | > 100 | > 100 | > 100 | > 100 | > 100 | > 100 | – | – | – | –
C/C(=N\Nc1nc2ccccc2s1)c1cc2ccccc2cn1 | > 100 | – | 62.2 | 32.4 | 19.3 | 8.04 | 23.2 | > 100 | > 100 | 23.2 | – | – | – | –
CC1(C)OC2OC(C(COS(=O)(=O)C(F)(F)F)N=[N+]=[N-])C(OC(=O)c3ccccc3)C2O1 (stereo unspecified) | > 100 | > 100 | > 100 | > 100 | > 100 | > 100 | – | > 100 | > 100 | > 100 | – | – | – | –
Cn1c(=O)c2c(nc3sc4ccccc4c(=O)n32)n(C)c1=O | – | > 100 | > 100 | > 100 | > 100 | – | > 100 | > 100 | > 100 | > 100 | – | – | – | –
Cc1ccc2c(c1)nc1n2C(N)=Nc2ccccc2S1 | > 100 | 6.86 | > 100 | > 100 | > 100 | – | > 100 | > 100 | > 100 | > 100 | – | – | – | –
CC(C)=CC[C@]12CCN(C)[C@H]1N(S(=O)(=O)c1ccccc1)c1ccccc12 | > 100 | > 74.6 | > 100 | > 100 | > 100 | > 100 | > 76 | 55.5 | > 100 | – | – | – | – | –
COC(=O)C1(SC)C2CCC3C2CCC31 (stereo unspecified) | > 100 | > 100 | > 100 | > 100 | > 100 | > 100 | > 100 | > 100 | – | > 100 | – | – | – | –
COc1nc2ccc(COc3ccc(C(=O)O)cc3)cc2nc1OC | > 100 | > 100 | > 100 | 53.4 | > 100 | 97.4 | > 100 | > 100 | – | > 100 | – | – | – | –
CN(CCNC(=O)c1c[nH]c2c1Cc1ccccc1-2)CCNC(=O)c1c[nH]c2c1Cc1ccccc1-2 | > 100 | 77.2 | > 100 | – | > 100 | – | – | 52.1 | > 100 | 84.6 | – | – | – | –
CC(=O)OCC1OC(n2c(Br)nc3c2c(=O)n(C)c(=O)n3C)C(OC(C)=O)C1OC(C)=O (stereo unspecified) | > 100 | 57.9 | 83.6 | > 100 | > 100 | – | > 100 | – | > 100 | > 100 | – | – | – | –
